The data set is described as follows: Half life was evaluated. The class given is ADME.

Structures are written as SMILES.

This note sets out measurements from ChEMBL document CHEMBL1129340, “New prolyl endopeptidase inhibitors: in vitro and in vivo activities of azabicyclo[2.2.2]octane, azabicyclo[2.2.1]heptane, and perhydroindole derivatives” (J Med Chem, 1996).

On to `O=C([C@@H]1C2CCC(CC2)N1C(=O)[C@@H]1C[C@@H]1c1ccccc1)N1CCCC1`, for which the half-life – broadly, the time needed for the level to fall by half in the phase considered – is 7 h.
